Measured values reported in patent US20240158368A1, “Pyrrolidine Main Protease Inhibitors as Antiviral Agents” (AbbVie Inc., priority 2022, published 2024).
pEC50: −log10 of the molar value.

Legend:
OC43 Mpro = OC43 Mpro (Human coronavirus OC43 (HCoV-OC43), UniProt P0C6X6); assay type: biochemical
MERS Mpro = MERS Mpro (Middle East respiratory syndrome-related coronavirus (isolate United Kingdom/H123990006/2012) (MERS-CoV) (Betacoronavirus England 1), UniProt K9N7C7); experiment: biochemical
in vitro [1] = details: rat, pH 7.4
in vitro [2] = details: human, pH 7.4
229E Mpro = 229E Mpro (Human coronavirus 229E (HCoV-229E), UniProt P0C6X1); assay type: biochemical
in vitro [3] = details: PAMPA
SARS-CoV-2 Mpro = SARS-CoV-2 Mpro (Severe acute respiratory syndrome coronavirus 2 (2019-nCoV) (SARS-CoV-2), UniProt P0DTD1); assay type: biochemical
[4] = tested on: SARS-CoV-2 (strain USA-WA1/2020); experiment: microbe, parasite or virus in culture; assay type: cell-based; details: Severe acute respiratory syndrome coronavirus 2; HeLa-ACE2 cells; read-out: Antiviral CoV-2 EC50

Sequence of OC43 Mpro (P0C6X6 3247-3549 limits assumed): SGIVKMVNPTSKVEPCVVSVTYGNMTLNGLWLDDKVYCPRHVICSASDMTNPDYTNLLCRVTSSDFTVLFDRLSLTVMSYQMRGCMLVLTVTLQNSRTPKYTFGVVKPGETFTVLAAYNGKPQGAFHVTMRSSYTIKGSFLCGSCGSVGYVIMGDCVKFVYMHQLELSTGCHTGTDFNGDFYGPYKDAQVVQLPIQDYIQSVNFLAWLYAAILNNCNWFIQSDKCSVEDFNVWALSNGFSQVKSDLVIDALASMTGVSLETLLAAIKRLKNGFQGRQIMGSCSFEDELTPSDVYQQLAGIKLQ
Sequence of MERS Mpro (K9N7C7 3248-3553 limits assumed): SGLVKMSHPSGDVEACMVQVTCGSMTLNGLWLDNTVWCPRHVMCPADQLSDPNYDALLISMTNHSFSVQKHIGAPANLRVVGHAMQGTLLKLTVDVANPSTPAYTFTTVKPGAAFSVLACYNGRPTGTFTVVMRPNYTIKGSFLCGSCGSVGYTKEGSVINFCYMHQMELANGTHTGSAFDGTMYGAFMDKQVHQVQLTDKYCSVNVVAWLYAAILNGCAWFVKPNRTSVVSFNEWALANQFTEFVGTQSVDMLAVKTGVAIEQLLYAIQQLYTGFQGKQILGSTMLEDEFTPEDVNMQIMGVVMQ
Sequence of 229E Mpro (P0C6X1 2966-3267 limits assumed): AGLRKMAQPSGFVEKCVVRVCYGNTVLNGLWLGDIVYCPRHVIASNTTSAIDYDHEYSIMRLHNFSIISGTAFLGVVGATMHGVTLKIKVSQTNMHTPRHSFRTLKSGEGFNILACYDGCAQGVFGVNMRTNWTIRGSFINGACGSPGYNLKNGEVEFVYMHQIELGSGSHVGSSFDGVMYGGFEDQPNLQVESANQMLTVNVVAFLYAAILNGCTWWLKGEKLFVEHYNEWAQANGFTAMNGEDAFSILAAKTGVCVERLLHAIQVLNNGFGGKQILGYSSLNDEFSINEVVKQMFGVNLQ

Row | SMILES | pEC50 (OC43 Mpro) | pEC50 (MERS Mpro) | CLint scaled (in vitro [1]; microsomes) | CLint scaled (in vitro [2]; microsomes) | pEC50 (229E Mpro) | Papp (in vitro [3]) | pEC50 (SARS-CoV-2 Mpro) | pEC50 [4] | CLint scaled (in vitro [1]) | CLint scaled (in vitro [2])
1 | COCCN(C)C(=O)c1cc(Br)cc(C(F)(F)F)c1N1CC[C@@H](NC(=O)c2cc(=O)[nH]c3c(F)cccc23)C1 [Compound 72] | 7.72 | 8.55 | 1280 mL/min/kg | 562 mL/min/kg | 7.41 | 19.6 ×10⁻⁶ cm/s | 8.95 |  |  | 
2 | O=C(N[C@H]1CCN(c2c(C(=O)N3CCOCC3)cc(Br)cc2C(F)(F)F)C1)c1cc(=O)[nH]c2c(F)cccc12 [Compound 47] |  |  | 182 mL/min/kg | 46.7 mL/min/kg |  | 15.7 ×10⁻⁶ cm/s |  |  |  | 
3 | N#Cc1cc(C(=O)N2CCOCC2)c(N2CC[C@H](NC(=O)c3cc(=O)[nH]c4c(F)cccc34)C2)c(C(F)(F)F)c1 [Compound 4] |  |  | < 41.7 mL/min/kg | < 25 mL/min/kg |  | 5.55 ×10⁻⁶ cm/s |  |  |  | 
4 | N#Cc1cc(C(=O)N2C[C@H]3COC[C@H]3C2)c(N2CC[C@@H](NC(=O)c3cc(=O)[nH]c4c(F)cccc34)C2)c(C(F)(F)F)c1 [Compound 18] |  | 8.87 |  |  |  | 7.19 ×10⁻⁶ cm/s |  | 7.87 | 95 mL/min/kg | 38.3 mL/min/kg
5 | N#Cc1cc(C(=O)N2CCOCC2)c(N2CC[C@@H](NC(=O)c3cc(=O)[nH]c4c(F)cccc34)C2)c(C2CC2)c1 [Compound 40] | 9.26 | 9.05 | 220 mL/min/kg | < 28.3 mL/min/kg | 8.61 | 5.15 ×10⁻⁶ cm/s | 9.38 | 8.30 |  | 
6 | O=C(N[C@@H]1CCN(c2c(C(=O)N3CCOCC3)cc(Br)cc2C(F)F)C1)c1c(F)c(=O)[nH]c2c(F)cccc12 [Compound 54] | 9.38 | 8.95 | 257 mL/min/kg | 140 mL/min/kg | 8.33 | 13.1 ×10⁻⁶ cm/s | 9.37 | 8.30 |  | 
7 | Cc1cc(C(=O)N[C@@H]2CCN(c3c(C(=O)N4CCOCC4)cc(C#N)cc3C(F)F)C2)c(F)c(=O)[nH]1 [Compound 12] | 7.63 | 8.58 | < 41.7 mL/min/kg | < 25 mL/min/kg | 7.04 | 0.23 ×10⁻⁶ cm/s | 8.99 |  |  | 
8 | Cc1cc(C(=O)N[C@@H]2CCN(c3c(C(=O)NCC(C)C)cc(C#N)cc3C(F)(F)F)C2)cc(=O)[nH]1 [Compound 29] | 6.42 | 8.05 | < 51.7 mL/min/kg | < 30 mL/min/kg | 6.17 | 3.51 ×10⁻⁶ cm/s | 7.86 |  |  | 
9 | CCS(=O)(=O)N1CCN(C(=O)c2cc(C#N)cc(C(F)(F)F)c2N2CC[C@@H](NC(=O)c3cc(=O)[nH]c4c(F)cccc34)C2)CC1 [Compound 25] |  | 8.85 |  |  |  | 2.06 ×10⁻⁶ cm/s |  |  |  | 
10 | N#Cc1cc(C(=O)N2CCC(F)(F)C2)c(N2CC[C@@H](NC(=O)c3cc(=O)[nH]c4c(F)cccc34)C2)c(C(F)(F)F)c1 [Compound 21] |  | 8.89 |  |  |  | 8.89 ×10⁻⁶ cm/s |  |  | 128 mL/min/kg | 55 mL/min/kg
11 | Cc1[nH]c(=O)c(F)c(C(=O)N[C@@H]2CCN(c3c(C(=O)N4CCOCC4)cc(C#N)cc3C(F)(F)F)C2)c1Cl [Compound 11] | 7.99 | 8.79 | < 61.7 mL/min/kg |  | 8.27 | 0.49 ×10⁻⁶ cm/s | 9.14 |  |  | 
12 | N#Cc1cc(C(=O)N2CCOCC2)c(N2C[C@H](NC(=O)c3cc(=O)[nH]c4c(F)cc(F)cc34)CC2=O)c(C(F)(F)F)c1 [Compound 33] | 6.77 | 8.60 | < 56.7 mL/min/kg | < 35 mL/min/kg | 7.41 | 1.12 ×10⁻⁶ cm/s | 9.04 | 6.76 |  | 
13 | CN1CCN(C(=O)c2cc(C#N)cc(C3CC3)c2N2CC[C@@H](NC(=O)c3cc(=O)[nH]c4c(F)cccc34)C2)CC1 [Compound 41] | 9.16 | 9.09 | 280 mL/min/kg | 147 mL/min/kg | 8.67 | 0.59 ×10⁻⁶ cm/s | 9.35 |  |  | 
14 | O=C(N[C@@H]1CCN(c2c(C(=O)N3CCC(F)(F)C3)cc(Br)cc2C(F)(F)F)C1)c1cc(=O)[nH]c2c(F)cccc12 [Compound 69] | 8.31 | 8.75 | 1040 mL/min/kg | 303 mL/min/kg | 7.81 | 14.5 ×10⁻⁶ cm/s | 9.17 |  |  | 
15 | O=C(N[C@@H]1CCN(c2c(OC(F)(F)F)cc(Br)cc2C(=O)N2CCOCC2)C1)c1cc(=O)[nH]c2c(F)cccc12 [Compound 42] | 8.85 | 8.98 | 482 mL/min/kg | 125 mL/min/kg | 8.45 | 14.7 ×10⁻⁶ cm/s | 9.35 | 8.09 |  | 
16 | N#Cc1cc(C(=O)N2CC3CC(C2)O3)c(N2CC[C@@H](NC(=O)c3cc(=O)[nH]c4c(F)cccc34)C2)c(C(F)(F)F)c1 [Compound 17] |  | 8.90 |  |  |  | 4.6 ×10⁻⁶ cm/s |  |  | < 48.3 mL/min/kg | < 28.3 mL/min/kg

Row | SMILES | pEC50 (OC43 Mpro) | pEC50 (MERS Mpro) | CLint scaled (in vitro [1]; microsomes) | CLint scaled (in vitro [2]; microsomes) | pEC50 (229E Mpro) | Papp (in vitro [3]) | pEC50 (SARS-CoV-2 Mpro) | pEC50 [4] | CLint scaled (in vitro [1]) | CLint scaled (in vitro [2])
17 | N#Cc1cc(C(=O)N2CCOCC2)c(N2CC[C@@H](NC(=O)c3cc(=O)[nH]c4c(F)cc(F)cc34)C2)c(C(F)(F)F)c1 [Compound 7] | 8.31 | 9.00 | < 58.3 mL/min/kg | < 35 mL/min/kg | 8.56 | 6.77 ×10⁻⁶ cm/s | 9.37 | 7.59 |  | 
18 | CO[C@H]1CN(c2c(C(=O)N3CCOCC3)cc(C#N)cc2C(F)(F)F)C[C@@H]1NC(=O)c1cc(=O)[nH]c2c(F)cccc12 [Compound 32] | 8.93 | 8.97 | < 70 mL/min/kg | 48.3 mL/min/kg | 8.75 | 7.29 ×10⁻⁶ cm/s | 9.35 | 7.73 |  | 
19 | O=C(N[C@@H]1CCN(c2c(OC(F)F)cc(Cl)cc2C(=O)N2CCOCC2)C1)c1cc(=O)[nH]c2c(F)cccc12 [Compound 43] | 8.50 | 8.85 | 312 mL/min/kg | 100 mL/min/kg | 7.82 | 12.7 ×10⁻⁶ cm/s | 9.34 | 7.61 |  | 
20 | O=C(N[C@@H]1CCN(c2c(C(=O)N3CCOCC3)cc(Br)cc2C(F)(F)F)C1)c1c(F)c(=O)[nH]c2ccccc12 [Compound 53] | 9.15 | 8.73 | 615 mL/min/kg | 217 mL/min/kg | 8.70 | 8.9 ×10⁻⁶ cm/s | 9.22 |  |  | 
21 | C[C@@]12COC[C@@H]1CN(C(=O)c1cc(C#N)cc(C(F)(F)F)c1N1CC[C@@H](NC(=O)c3cc(=O)[nH]c4c(F)cccc34)C1)C2 [Compound 16] |  | 8.84 |  |  |  | 7.38 ×10⁻⁶ cm/s |  |  | 313 mL/min/kg | 93.3 mL/min/kg
22 | N#Cc1cc(C(=O)N2CCNC(=O)C2)c(N2CC[C@@H](NC(=O)c3cc(=O)[nH]c4c(F)cccc34)C2)c(C(F)(F)F)c1 [Compound 27] | 8.06 | 8.87 | < 58.3 mL/min/kg | < 35 mL/min/kg |  | 0.11 ×10⁻⁶ cm/s | 9.20 | 5.55 |  | 
23 | O=C(N[C@@H]1CCN(c2c(OC(F)(F)F)cc(Cl)cc2C(=O)N2CCOCC2)C1)c1cc(=O)[nH]c2c(F)cccc12 [Compound 44] | 8.70 | 8.97 | 292 mL/min/kg | 41.7 mL/min/kg | 8.50 | 15.3 ×10⁻⁶ cm/s | 9.28 |  |  | 
24 | O=C(N[C@@H]1CCN(c2c(C(=O)N3CC4COCC4C3)cc(Br)cc2C(F)(F)F)C1)c1cc(=O)[nH]c2c(F)cccc12 (stereo partly shown) [Compound 66] | 8.69 | 8.89 | 607 mL/min/kg | 297 mL/min/kg | 8.24 | 15 ×10⁻⁶ cm/s | 9.32 |  |  | 
25 | COCCN1CCN(C(=O)c2cc(C#N)cc(C(F)(F)F)c2N2CC[C@@H](NC(=O)c3cc(=O)[nH]c4c(F)cccc34)C2)CC1 [Compound 19] |  | 8.84 |  |  |  | 6.68 ×10⁻⁶ cm/s |  |  | 200 mL/min/kg | < 36.7 mL/min/kg
26 | O=C(N[C@@H]1CCN(c2c(C(=O)N3CC(F)(F)C3)cc(Br)cc2C(F)(F)F)C1)c1cc(=O)[nH]c2c(F)cccc12 [Compound 70] | 7.95 | 8.71 | 845 mL/min/kg | 205 mL/min/kg | 7.47 | 13.9 ×10⁻⁶ cm/s | 8.99 |  |  | 
27 | N#Cc1cc(C(=O)N2CCCC2)c(N2CC[C@@H](NC(=O)c3cc(=O)[nH]c4c(F)cccc34)C2)c(C(F)(F)F)c1 [Compound 20] |  | 8.77 |  |  |  | 13.8 ×10⁻⁶ cm/s |  |  | 142 mL/min/kg | < 36.7 mL/min/kg
28 | O=C(N[C@@H]1CCN(c2c(C(=O)N3CCCCC3)cc(Br)cc2C(F)(F)F)C1)c1cc(=O)[nH]c2c(F)cccc12 [Compound 64] | 8.54 | 8.86 | 1070 mL/min/kg | 272 mL/min/kg | 8.02 | 14.9 ×10⁻⁶ cm/s | 9.28 |  |  | 
29 | O=C(N[C@@H]1CC(=O)N(c2c(C(=O)N3CCOCC3)cc(Br)cc2C(F)(F)F)C1)c1c(F)c(=O)[nH]c2c(F)c(F)ccc12 [Compound 77] | 7.55 | 8.77 | < 65 mL/min/kg | < 38.3 mL/min/kg | 6.91 | 3.46 ×10⁻⁶ cm/s | 8.92 |  |  | 
30 | O=C(N[C@@H]1CCN(c2c(C(=O)N3CCCC3)cc(Br)cc2C(F)(F)F)C1)c1cc(=O)[nH]c2c(F)cccc12 [Compound 68] | 8.45 | 8.74 | 1120 mL/min/kg | 317 mL/min/kg | 7.98 | 14.7 ×10⁻⁶ cm/s | 9.22 |  |  | 
31 | N#Cc1cc(C(=O)N2CCCCC2)c(N2CC[C@@H](NC(=O)c3cc(=O)[nH]c4c(F)cccc34)C2)c(C(F)(F)F)c1 [Compound 15] |  | 8.48 |  |  |  | 15.2 ×10⁻⁶ cm/s |  |  | 220 mL/min/kg | 76.7 mL/min/kg
